Experimental data reported in US20180206489A1, “REPELLENT EFFECTIVE AGAINST ANOPHELES GAMBIAE” (Simon Fraser University, priority 2014, published 2018).
“Also recorded” adds a separate entry of the source.

Legend:
Anopheles gambiae [1] = assay: Electroantennogram (EAG) screening assay on female antennae
Method: EAG recordings were obtained using a Combi Probe (Syntech, Kirchzarten, Germany) fitted with glass capillary Ag/AgCl electrodes, filled with insect Ringer solution. Fine, tapered capillaries were prepared on a Gravipull-2 capillary puller (Kation Scientific, Minneapolis, USA). Data were recorded with an IDAC-4 data acquisition system (Syntech), interfaced with a computer that had the software EAGpro (version 1.1, Syntech). Stimuli were dissolved in hexane […] and applied to small filter papers (Whatman No. 1) (10 μL). This gave doses on the filter paper of 1 μg, 10 μg and 100 μg. After evaporation of the solvent, the filter papers were placed in a Pasteur pipette. Pipettes were attached to a CS-55 stimulus controller ([…]) that delivered a pulse of air (30 mL/s) through the pipette and into a metal stimulus delivery tube (Ø 0.95 cm×18 cm) that dispensed a continuous airflow (25 mL/s) and was positioned approximately 2 cm from the mosquito antenna so that the airflow contacted the entire antenna. The duration of the pulse was 0.7 s. Screening took place on A. gambiae females 4-7 days post-eclosion. Females were starved (sugar water replaced with distilled water in the colony cage) for 24 hours before trials to ensure a standard hunger level in test subjects. Mosquitoes were prepared for trials in this manner: the head of the mosquito was excised and the base of the head was connected to the ground electrode. The tip of the distal segment of one antenna was cut and inserted it into the recording electrode. Only mosquitoes producing a steady baseline reading were used for trials. All readings were taken within 10 minutes of the time the mosquito was prepared and each female was tested only once with one full chemical series. Trials included human scent emanating from a sock (Tradition brand, nylon) previously conditioned through 30 minutes of vigorous exercise by a volunteer and incubated at 28° C. and 80% RH for 24 hours. […] For trials, the sock was cut into 0.5 cm×3 cm strips and put into the pipette dispensing the odor pulses. Odors in each run were presented to the mosquito in the following order with at least 25 seconds between odor pulses: no odor, no odor, 10 μg DEETTM, 10 μg chemical, no odor, no odor, human scent only, human scent with 1 μg chemical, human scent with 10 μg chemical, human scent with 100 μg chemical, human scent only, no odor, no odor, 10 μg DEETTM. Several of these pulses served as internal controls to ensure that the mosquito antenna was still responding to the stimuli, or the human odor was detectable to the mosquito. One of the pulses, such as air pulse, produced a response, but it is smaller than that of odor or of presented compounds, seven […]. The DEETTM pulses were included as a reference. The pulses of interest were those containing both the human odor and chemical of interest in various concentrations. 9 runs were completed for each chemical tested and recorded the amplitude of the peaks produced for each odor pulse. […] All data were analyzed in R version 2.15.0 (R Development Core Team, 2012). […] EAG activity values were analyzed using a generalized least squares ANOVA with a variance structure that accounts for measurements within runs being more similar than measurements between runs. […] Behavioural assay data was analyzed using a MANOVA with solvent type and chemical (including concentration) as factors. […]

Anopheles gambiae [2] = assay: Behavioural olfactometer assay with human odor source protected by chemical and alternate plant (honey) odor source; format: in vivo; settings: for repelling efficacy, DEET vs 3c{3,6}: 0.1% solution; for total experiment time (time in the proximity of the human odor source) vs unprotected control / probe time (time on the human odor source) vs unprotected control / number of probe attempts at the human odor source vs unprotected control: 1% chemical on mesh over human odor, P<0.05; for total experiment time (time in the proximity of the human odor source) vs unprotected control: FIG. 5A; for probe time (time on the human odor source) vs unprotected control: FIG. 5B; for number of probe attempts at the human odor source vs unprotected control: FIG. 5C
Method: The olfactometer procedure and materials used in this study are similar to those employed by Zappia and Roitberg (2012) Energy-state dependent responses of Anopheles gambiae (Diptera: Culicidae) to simulated bednet-protected hosts. J. Vector Ecol. 37 (1): 173-8, herein incorporated by reference in its entirety. The behavioral assay was conducted in a custom-made glass olfactometer tube (145 cm long, 17 cm diameter) (FIG. 2). A mosquito release chamber was located on one side of the tube and consisted of a small tube with a gate attached separating the mosquito from the experiment arena. A small sac (10 cm×3 cm in diameter) made of mesh (Onsight equipment insecticide free hiker's mosquito shelter) was positioned 60 cm from the end of the release chamber. The mesh sac was immersed in the treatment compound immediately before trials and allowed to dry before the trial began. The sac contained human odor in the form of a sock (Secret brand, nylon) conditioned through 30 minutes of strenuous exercise and incubated at 28° C. and 80% RH for 24 hours before use. This sock was tested to ensure it was attractive to mosquitoes at the beginning of each trial day (by placing it in a non-experimental colony cage and observing whether females in the cage would seek it out to probe at it) and replaced every 5 days. A breathing tube was also attached to the human odor/chemical complex that allowed a one-way flow of exhaled carbon dioxide into the arena through the sock to make the human odor more attractive to A. gambiae. Carbon dioxide was exhaled into this tube once every 15 seconds during trials. An odor-producing sugar source was located 73 cm from the human odor/chemical complex. This consisted of a cotton ball impregnated with approximately 5 g of honey (Kidd Bros, Alfalfa Clover). The ball was suspended on a metal stage from the top of the olfactometer tube. This gave the mosquito an alternative during trials from seeking the human odor source. At the opposite end of the tube from the release gate was an air source pumping a one-way source of carbon-filtered air into the olfactometer arena flowing from the sugar source to the human odor to the release gate at a rate of 0.025 L/s. The olfactometer was rinsed daily with acetone and water to minimize residual odors. A 2×5 factorial design was used with solvent type and chemical as factors. The solvent types tested were a 1:1 and 1:5 ratio of isopropyl alcohol to water. Two different solvent types were assessed to determine the lowest ratio of alcohol to water that would be effective, since a lower concentration of alcohol is both more cost effective and practical in the field. […] In addition, we tested DEET™ as a positive control compound. Two concentrations of DEET™ and 3c{3,6} (0.1% and 1%) and a control were assessed for each solvent consisting of the solvent without the active ingredient (0% concentration). Female A. gambiae (4-7 days old, not previously blood-fed, and without a visibly swollen abdomen, wing size 2.93 mm-3.49 mm) were starved for 24 hours before assays. All assays were run under dim red light (1.79 μmol photons/(s×m^2)) in the colony chamber 1-5 hours after darkness since this is the period in which blood-seeking behaviour in females is highest. Mosquitoes were allowed to acclimate in the release chamber for 3 minutes before trials began. After 3 minutes, the release gate was opened. […] When the mosquito entered the arena, timing began. During trials, the olfactometer design was such that the mosquito encountered the human odor/chemical first, followed by the sugar odor source. The experiment arena consisted of the area in the olfactometer that was placed in front of the plant odor source, relative to the release point of the mosquito. Trials ended when the mosquito landed anywhere in the arena and rested for 5 minutes or flew to the plant sugar source. […]

[3] = system: olfactory receptor neurons on the maxillary palps of A. gambiae; settings: cited from earlier work
Culex quinquefasciatus = settings: cited from earlier work
Aedes aegypti = settings: cited from earlier work
[4] = system: neurons in the sacculus on the antenna that express an ionotropic receptor (IR40a); settings: cited from earlier work

Row | SMILES | depolarization response of compound by itself (Anopheles gambiae [1]; 100 μg dose, FIG. 6) | air-corrected antennal depolarization, chemical alone (without the human odor) (Anopheles gambiae [1]; FIG. 4, difference not significant (P>0.05)) | EAG activity: response to repellent/human odor source combination compared to DEET reference peak (Anopheles gambiae [1]; human scent with 1 μg, 10 μg, 100 μg chemical (pooled), FIG. 3) | repelling efficacy, DEET vs 3c{3,6} (Anopheles gambiae [2]) | total experiment time (time in the proximity of the human odor source) vs unprotected control (Anopheles gambiae [2]) | probe time (time on the human odor source) vs unprotected control (Anopheles gambiae [2]) | number of probe attempts at the human odor source vs unprotected control (Anopheles gambiae [2]) | behavioural response compared with DEET (Anopheles gambiae [2]; 1% solution) | repellent efficacy against A. gambiae (overall conclusion) (Anopheles gambiae [2]; in vivo) | enhancement or inhibition of antennal responses to human scent (Anopheles gambiae [1]; compound + human scent) | antennal (olfactory) response to compound by itself (Anopheles gambiae [1]; compound alone, EAG) | inhibition of olfactory receptor neurons (decreased response to 1-octen-3-ol) [3] | direct detection of DEET (Culex quinquefasciatus) | inhibition of neuron response to 1-octen-3-ol (Culex quinquefasciatus) | direct detection of DEET (Aedes aegypti) | inhibition of neuron response to 1-octen-3-ol (Aedes aegypti) | stimulation of IR40a-expressing sacculus neurons [4]
1 | C=CCOc1ccc(OCCC)cc1 [3c{3,6}, 1-allyloxy-4-propoxybenzene] | one of the largest depolarization responses by itself | larger air-corrected antennal depolarization than the other compounds tested | largest activity of all the compounds tested | a 0.1% solution of DEET™ was more effective | spent less time in the proximity of the human odor source | spent less time on the human odor source | attempted to probe less | comparable response in mosquitoes to a 1% solution of DEET™ | effective repellent for A. gambiae; also recorded: effective repellent against A. gambiae |  |  |  |  |  |  |  | 
2 | CCN(CC)C(=O)c1cccc(C)c1 [DEET™, N—N-diethyl-meta-toluamide] |  |  |  | more effective at repelling A. gambiae individuals than a 0.1% solution of 3c{3,6} | spent less time in the proximity of the human odor source | spent less time on the human odor source | attempted to probe less |  |  | did not affect the responses to the human scent | responded; also recorded: elicited olfactory responses by itself | inhibits olfactory receptor neurons on the maxillary palps of A. gambiae | detect DEET™ directly | this inhibition was not detected | detect DEET™ directly | this inhibition was not detected | stimulate neurons in the sacculus on the antenna of Drosophila melanogaster
